Measured values as given in ChEMBL document CHEMBL3877277, “Design, synthesis and biological evaluation of new phthalimide and saccharin derivatives with alicyclic amines targeting cholinesterases, beta-secretase and amyloid beta aggregation” (Eur J Med Chem, 2017).
pIC50: −log10 of the molar value. The source made the active and inactive calls. The calls are words filed in the database; no cut-off is given here.

How the values were obtained:
[1] = molecular target: Acetylcholinesterase (Electrophorus electricus) (UniProt O42275); test: Inhibition of Electric eel AChE at 10 uM using acetylthiocholine iodide as substrate preincubated for 5 mins followed by substrate addition measured after 5 mins by Ellman's method relative to control
[2] = molecular target: Cholinesterase (Equus caballus) (UniProt P81908); test: Inhibition of equine serum BuChE at 10 uM using butyrylthiocholine iodide as substrate preincubated for 5 mins followed by substrate addition measured after 5 mins by Ellman's method relative to control
Acetylcholinesterase [3] = molecular target: Acetylcholinesterase (Electrophorus electricus, UniProt O42275)
Description: Inhibition of Electric eel AChE using acetylthiocholine iodide as substrate preincubated for 5 mins followed by substrate addition measured after 5 mins by Ellman's method

Acetylcholinesterase [4] = molecular target: T1, Acetylcholinesterase (Homo sapiens, UniProt P22303); test: Inhibition of recombinant human AChE using acetylthiocholine iodide as substrate preincubated for 5 mins followed by substrate addition measured after 5 mins by Ellman's method
[5] = molecular target: Amyloid-beta precursor protein (Homo sapiens) (UniProt P05067); test: Inhibition of recombinant human HFIP-pretreated amyloid beta (1 to 42) self-induced aggregation at 10 uM after 24 hrs by thioflavin T-based fluorometric assay relative to control
in vitro = details: PAMPA
[6] = PAMPA, 6 h, 100 µM
Acetylcholinesterase [7] = molecular target: T1, Acetylcholinesterase; test: Inhibition of recombinant human AChE using acetylthiocholine as substrate by Ellman's method
[8] = molecular target: Acetylcholinesterase (Electrophorus electricus) (UniProt O42275); test: Non-competitive inhibition of Electric eel AChE at 0.75 to 3.5 uM using varying levels of acetylthiocholine iodide as substrate preincubated for 5 mins followed by substrate addition measured after 5 mins by Lineweaver-Burk plot analysis
[9] = molecular target: Acetylcholinesterase (Electrophorus electricus) (UniProt O42275); test: Non-competitive inhibition of Electric eel AChE at 0.75 to 3.5 uM using varying levels of acetylthiocholine iodide as substrate preincubated for 5 mins followed by substrate addition measured after 5 mins by Cornish-Bowden plot analysis

Acetylcholinesterase (Electrophorus electricus, UniProt O42275), sequence (O42275 whole entry): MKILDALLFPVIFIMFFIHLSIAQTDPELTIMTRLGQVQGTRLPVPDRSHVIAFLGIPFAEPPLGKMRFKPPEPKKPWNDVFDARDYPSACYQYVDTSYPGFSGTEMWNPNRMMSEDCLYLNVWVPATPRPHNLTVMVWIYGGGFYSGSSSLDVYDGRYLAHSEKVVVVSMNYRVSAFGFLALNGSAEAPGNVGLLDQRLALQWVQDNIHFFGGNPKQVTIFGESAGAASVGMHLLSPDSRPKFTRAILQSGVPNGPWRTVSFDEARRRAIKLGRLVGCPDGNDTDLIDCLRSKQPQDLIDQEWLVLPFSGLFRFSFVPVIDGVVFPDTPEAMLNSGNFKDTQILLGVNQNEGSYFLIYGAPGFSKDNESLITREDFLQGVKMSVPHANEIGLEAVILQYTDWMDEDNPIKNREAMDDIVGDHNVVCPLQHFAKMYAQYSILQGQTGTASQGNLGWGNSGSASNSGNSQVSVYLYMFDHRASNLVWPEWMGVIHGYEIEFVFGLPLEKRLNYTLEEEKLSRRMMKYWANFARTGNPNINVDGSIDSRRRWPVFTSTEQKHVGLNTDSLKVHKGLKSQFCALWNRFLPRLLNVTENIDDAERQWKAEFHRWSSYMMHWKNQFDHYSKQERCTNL
Acetylcholinesterase (Electrophorus electricus), sequence (O42275 24-633 limits assumed): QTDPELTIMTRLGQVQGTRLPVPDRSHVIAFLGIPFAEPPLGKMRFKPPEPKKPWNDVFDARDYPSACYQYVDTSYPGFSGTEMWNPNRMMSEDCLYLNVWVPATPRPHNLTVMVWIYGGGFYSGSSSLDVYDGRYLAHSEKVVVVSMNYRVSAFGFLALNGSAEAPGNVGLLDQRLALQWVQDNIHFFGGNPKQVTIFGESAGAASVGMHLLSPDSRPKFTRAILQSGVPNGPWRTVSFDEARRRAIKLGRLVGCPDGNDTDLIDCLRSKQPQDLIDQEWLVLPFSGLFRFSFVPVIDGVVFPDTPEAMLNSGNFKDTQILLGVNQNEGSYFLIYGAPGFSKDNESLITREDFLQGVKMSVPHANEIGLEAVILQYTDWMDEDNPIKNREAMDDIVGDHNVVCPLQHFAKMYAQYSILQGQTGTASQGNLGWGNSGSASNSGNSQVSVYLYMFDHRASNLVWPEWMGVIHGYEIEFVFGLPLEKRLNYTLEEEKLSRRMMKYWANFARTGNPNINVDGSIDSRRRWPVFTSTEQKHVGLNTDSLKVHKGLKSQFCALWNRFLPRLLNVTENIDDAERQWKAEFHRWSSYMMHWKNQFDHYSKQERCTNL
Cholinesterase (Equus caballus), sequence (P81908 whole entry): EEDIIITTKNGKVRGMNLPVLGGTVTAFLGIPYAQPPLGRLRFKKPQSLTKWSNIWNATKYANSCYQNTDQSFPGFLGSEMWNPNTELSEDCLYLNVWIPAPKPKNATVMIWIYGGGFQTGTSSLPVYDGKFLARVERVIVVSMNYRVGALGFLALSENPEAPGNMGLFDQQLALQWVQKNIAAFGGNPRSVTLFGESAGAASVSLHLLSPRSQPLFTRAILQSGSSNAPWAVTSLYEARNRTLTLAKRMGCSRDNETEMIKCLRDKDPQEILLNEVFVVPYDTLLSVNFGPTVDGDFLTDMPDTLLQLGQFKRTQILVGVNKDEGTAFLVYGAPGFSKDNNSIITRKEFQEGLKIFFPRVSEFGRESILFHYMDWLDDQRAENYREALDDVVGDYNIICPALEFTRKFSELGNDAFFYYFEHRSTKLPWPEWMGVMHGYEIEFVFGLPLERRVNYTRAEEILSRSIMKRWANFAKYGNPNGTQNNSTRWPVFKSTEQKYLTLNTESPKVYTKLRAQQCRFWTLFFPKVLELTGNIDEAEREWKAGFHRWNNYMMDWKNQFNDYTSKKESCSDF
T1 sequence (P22303 whole entry): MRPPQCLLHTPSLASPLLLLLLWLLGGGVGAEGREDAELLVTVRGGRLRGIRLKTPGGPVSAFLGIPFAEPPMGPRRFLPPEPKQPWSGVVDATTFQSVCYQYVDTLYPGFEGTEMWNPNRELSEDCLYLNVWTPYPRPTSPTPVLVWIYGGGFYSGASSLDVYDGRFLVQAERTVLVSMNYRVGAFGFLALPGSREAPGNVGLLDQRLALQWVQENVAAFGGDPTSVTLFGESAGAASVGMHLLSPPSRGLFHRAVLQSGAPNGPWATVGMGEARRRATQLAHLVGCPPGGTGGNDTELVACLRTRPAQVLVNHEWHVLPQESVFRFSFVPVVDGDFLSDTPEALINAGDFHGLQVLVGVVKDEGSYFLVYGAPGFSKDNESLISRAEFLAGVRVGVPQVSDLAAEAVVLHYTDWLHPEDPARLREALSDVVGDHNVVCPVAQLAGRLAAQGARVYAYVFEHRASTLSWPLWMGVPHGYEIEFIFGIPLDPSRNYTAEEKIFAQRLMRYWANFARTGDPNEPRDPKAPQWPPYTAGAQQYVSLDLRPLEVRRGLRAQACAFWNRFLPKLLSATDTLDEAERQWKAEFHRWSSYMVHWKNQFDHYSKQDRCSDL
Amyloid-beta precursor protein (Homo sapiens), sequence (P05067 whole entry): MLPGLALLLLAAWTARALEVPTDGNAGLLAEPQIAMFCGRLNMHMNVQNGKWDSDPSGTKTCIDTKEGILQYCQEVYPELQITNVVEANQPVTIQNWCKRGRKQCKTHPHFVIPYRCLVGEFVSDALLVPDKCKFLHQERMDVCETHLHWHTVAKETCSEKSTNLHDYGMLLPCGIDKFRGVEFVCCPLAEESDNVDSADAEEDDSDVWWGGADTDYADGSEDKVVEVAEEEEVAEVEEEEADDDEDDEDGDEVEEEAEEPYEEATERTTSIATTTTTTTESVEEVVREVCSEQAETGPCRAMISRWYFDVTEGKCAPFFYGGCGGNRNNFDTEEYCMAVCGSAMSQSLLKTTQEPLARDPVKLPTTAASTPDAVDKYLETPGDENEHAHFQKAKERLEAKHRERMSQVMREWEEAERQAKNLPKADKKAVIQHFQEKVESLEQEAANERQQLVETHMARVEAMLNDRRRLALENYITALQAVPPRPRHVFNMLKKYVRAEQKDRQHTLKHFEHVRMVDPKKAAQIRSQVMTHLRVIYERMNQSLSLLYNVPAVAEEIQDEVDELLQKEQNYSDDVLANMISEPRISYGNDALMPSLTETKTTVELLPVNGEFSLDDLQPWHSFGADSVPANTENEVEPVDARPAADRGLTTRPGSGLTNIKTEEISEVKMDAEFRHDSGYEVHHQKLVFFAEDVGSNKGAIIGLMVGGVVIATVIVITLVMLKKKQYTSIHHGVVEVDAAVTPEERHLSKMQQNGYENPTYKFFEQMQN

SMILES | inhibition [1] [%] | inhibition [2] [%] | pIC50 (Acetylcholinesterase [3]) | other results
O=C1c2ccccc2S(=O)(=O)N1CCN1CCN(Cc2cc(F)cc(F)c2)CC1 | > 50 | 11 | 4.72 | 
O=C1c2ccccc2C(=O)N1CCNC1CCCN(Cc2ccccc2)C1 (stereo unspecified) | < 10 | 16 |  | 
O=C1c2ccccc2S(=O)(=O)N1CCCCCNCc1ccccc1 |  |  |  | pIC50 (Acetylcholinesterase [4]): 7.48; inhibition [5]: 22.2%
O=C1c2ccccc2S(=O)(=O)N1CCN1CCCN(Cc2cc(F)cc(F)c2)C1 | 25.4 | 16.4 |  | 
O=C1c2ccccc2S(=O)(=O)N1CCN1CCCC(NCc2cc(F)cc(F)c2)C1 (stereo unspecified) | < 10 | < 10 |  | 
O=C1c2ccccc2C(=O)N1CCNC1CCN(Cc2ccccc2)C1 (stereo unspecified) | 25.7 | 21.4 |  | 
O=C1c2ccccc2C(=O)N1CCN1CCCN(Cc2cc(F)cc(F)c2)C1 | < 10 | < 10 |  | 
O=C1c2ccccc2S(=O)(=O)N1CCN1CCN(Cc2ccc(F)cc2)CC1 | > 50 | 47.5 | 5.20 | Papp at 6 h, 100 µM (in vitro): 3.65 ×10⁻⁶ cm/s
O=C1c2ccccc2S(=O)(=O)N1CCN1CCN(Cc2cccc(F)c2)CC1 | > 50 | < 10 | 5.67 | 
O=C1c2ccccc2C(=O)N1CCN1CCN(Cc2cc(F)cc(F)c2)CC1 | < 10 | 14.2 |  | 
CCN(C)C(=O)Oc1cccc([C@H](C)N(C)C)c1 [RIVASTIGMINE] |  |  |  | permeability [6]: 6.6 ×10⁻⁶ cm/s
O=C1c2ccccc2C(=O)N1CCN1CCCC(NCc2cc(F)cc(F)c2)C1 (stereo unspecified) | > 50 | 20 | 5.19 | 
O=C1c2ccccc2S(=O)(=O)N1CCN1CCCN(Cc2ccccc2F)C1 | 18.4 | 21.6 |  | 
O=C1c2ccccc2S(=O)(=O)N1CCCN1CCN(Cc2ccccc2F)CC1 | < 10 | 12 |  | 
O=C1c2ccccc2S(=O)(=O)N1CCCN1CCN(Cc2ccccc2)CC1 | 34.2 | 11.7 |  | 
O=C1c2ccccc2S(=O)(=O)N1CCCCCCN1CCN(Cc2ccccc2)CC1 | 41.7 | 41.8 |  | 
O=C1c2ccccc2S(=O)(=O)N1CCN1CCN(CCc2ccccc2F)CC1 | < 10 | 11.3 |  | 

SMILES | inhibition [1] [%] | inhibition [2] [%] | pIC50 (Acetylcholinesterase [3]) | other results
O=C1c2ccccc2S(=O)(=O)N1CCCCN1CCN(Cc2ccccc2)CC1 | > 50 | 41.5 | 5.52 | Papp at 6 h, 100 µM (in vitro): 10.6 ×10⁻⁶ cm/s
CCN(Cc1ccccc1)Cc1ccc(-c2cc3cc(OCCNC(=O)/C=C/c4cc(F)cc(F)c4)ccc3oc2=O)cc1 |  |  |  | pIC50 (Acetylcholinesterase [7]): 8.15
O=C1c2ccccc2S(=O)(=O)N1CCCCCN1CCN(Cc2ccccc2)CC1 | 43.1 | 30.4 |  | 
O=C1c2ccccc2S(=O)(=O)N1CCCCCN1CCN(Cc2ccccc2F)CC1 | > 50 | 21.9 | 5.13 | Papp at 6 h, 100 µM (in vitro): 9.6 ×10⁻⁶ cm/s
O=C1c2ccccc2S(=O)(=O)N1CCCCN1CCN(Cc2ccccc2F)CC1 | > 50 | 29.6 | 5.37 | Papp at 6 h, 100 µM (in vitro): 11 ×10⁻⁶ cm/s
O=C1c2ccccc2S(=O)(=O)N1CCCCCCN1CCN(Cc2ccccc2F)CC1 | > 50 | 31.6 | 5.07 | 
O=C1c2ccccc2C(=O)N1CCN1CCN(Cc2ccccc2F)CC1 | 41.8 | < 10 |  | 
O=C1c2ccccc2C(=O)N1CCN1CCN(CCc2ccccc2F)CC1 | < 10 | 20.3 |  | 
O=C1c2ccccc2C(=O)N1CCNC1CCCN(Cc2cc(F)cc(F)c2)C1 (stereo unspecified) | < 10 | 14.2 |  | 
O=C1c2ccccc2C(=O)N1CCN1CCCN(Cc2ccccc2F)C1 | < 10 | 27.8 |  | 
O=C1c2ccccc2C(=O)N1CCNC1CCCN(Cc2ccccc2F)C1 (stereo unspecified) | 18.9 | 28.3 |  | 
O=C1c2ccccc2S(=O)(=O)N1CCN1CCN(CCc2ccccc2)CC1 | < 10 | 18.4 |  | 
O=C1c2ccccc2S(=O)(=O)N1CCN1CCN(Cc2ccccc2)CC1 | > 50 | 22.1 | 6.08 | inhibition [8]: Active; Papp at 6 h, 100 µM (in vitro): 3.75 ×10⁻⁶ cm/s; inhibition [9]: Active
O=C1c2ccccc2S(=O)(=O)N1CCN1CCCC(NCc2ccccc2F)C1 (stereo unspecified) | < 10 | < 10 |  | 
O=C1c2ccccc2S(=O)(=O)N1CCN1CCN(Cc2ccccc2F)CC1 | > 50 | 16.1 | 4.75 | 
O=C1c2ccccc2C(=O)N1CCN1CCCC(NCc2ccccc2F)C1 (stereo unspecified) | 15.3 | < 10 |  | 
